Usually IC50 stands for the concentration at which inhibition is half-maximal. Read a low IC50 as inhibition by little substance. For orientation: EC50 means the midpoint of the concentration-response curve. The low end stands for a more potent agent, the high end for a less potent agent. Usually inhibition stands for how much of the control response was suppressed. High values mean strong suppression, low ones little suppression.

We go through eight molecules from ChEMBL document CHEMBL1149950, “The synthesis and anti-hiv activity of pyrimidine dioxolanyl nucleosides” (Bioorg Med Chem Lett, 1993).

Assay [1] deals with MT4. Nature of the assay: Tested in vitro for the cytotoxic activity against uninfected MT-4 cells. It counts as functional, cell-based. The conditions noted are these: Homo sapiens.
Assay [2] can be described thus: Tested in vitro for the cytotoxic activity against uninfected human peripheral blood mononuclear (PBM) cells. It counts as functional.
Assay [3] is described as follows: Tested in vitro for the antiviral assay in mitogen stimulated human peripheral blood mononuclear (PBM) cells infected with HIV-1 (strain LAV). It counts as functional.
A further assay relates to Vero. Nature of the assay: Tested in vitro for the cytotoxic activity against uninfected Vero cells. Format: functional, cell-based. The note with it: Chlorocebus sabaeus.
In the next assay the test system is CCRF-CEM. The experiment in a line: Tested in vitro for the cytotoxic activity against uninfected CEM cells. Format: functional, cell-based. The conditions noted are these: Homo sapiens.
In assay [4] the test system is MT4. Nature of the assay: Tested in vitro for the cytotoxic activity against uninfected MT-4 cells at 200 uM. It counts as functional. The note with it: Homo sapiens.

For `O=c1ccn([C@H]2CO[C@@H](CO)O2)c(=O)[nH]1`, the figures for the IC50 (in the assay with MT4 [1]; in assay [2]; in the assay on Vero) were above 200 µM, above 100 µM and above 100 µM, respectively. Further, the midpoint of the response in assay [3], the EC50, lay at 57.5 µM.
For `Nc1ccn([C@H]2CO[C@@H](CO)O2)c(=O)n1`, the concentration for half-maximal inhibition (IC50) in the assay with CCRF-CEM was 0.08 µM; in assay [2] it was above 100 µM; with Vero, 0.17 µM. The molecule further gave an inhibition at 200 µM with MT4 [4] of 66%. The response in assay [3] was half-maximal at 0.005 µM (EC50).
In the case of `CCc1cn(C2COC(CO)O2)c(=O)[nH]c1=O` (stereo not drawn), the inhibition at 200 µM with MT4 [4] was 30%. Moreover, the half-inhibitory concentration (IC50) (in assay [2]; in the assay with Vero) was above 100 µM each time. Also, the EC50 in assay [3] is above 100 µM.
On to `O=c1[nH]c(=O)n([C@H]2CO[C@@H](CO)O2)cc1Br`, for which the IC50 was above 200 µM in the assay with MT4 [1], above 100 µM in assay [2] and above 100 µM in the assay on Vero. Moreover, the EC50 in assay [3] came out at 2.8 µM.
Consider `O=c1[nH]c(=O)n(C2COC(CO)O2)cc1Cl` (stereo not drawn), for which the IC50 with MT4 [1] was above 200 µM; in assay [2], above 100 µM; in the assay on Vero, above 100 µM. In addition, in assay [3], a half-maximal response (EC50) required 1.7 µM.
With `O=c1[nH]c(=O)n(C2COC(CO)O2)cc1I` (stereo not drawn), the IC50 in the assay with MT4 [1] is above 200 µM; in assay [2], above 100 µM; in the assay on Vero it was above 100 µM. Moreover, in assay [3], the EC50 is above 100 µM.
`O=c1[nH]c(=O)n(C2COC(CO)O2)cc1C(F)(F)F` (stereo not drawn): the IC50 in the assay with MT4 [1] was above 200 µM; in assay [2], above 100 µM; in the assay on Vero it was above 100 µM. Besides, the EC50 in assay [3] was 93 µM.
For `O=c1[nH]c(=O)n([C@H]2CO[C@@H](CO)O2)cc1F`, the IC50 (with CCRF-CEM; in assay [2]; in the assay on Vero) was above 100 µM each time. The molecule also displayed an EC50 in assay [3] of 28.5 µM.
